The source of these data is patent US7196110B2, “N-substituted tricyclic 3-aminopyrazoles as inhibitors for the treatment of cell proliferative disorders” (Janssen Phamaceutica N.V., priority 2002, dated 2007).

The structures appear in SMILES notation.

c-Abl kinase, sequence (P00521 115-385): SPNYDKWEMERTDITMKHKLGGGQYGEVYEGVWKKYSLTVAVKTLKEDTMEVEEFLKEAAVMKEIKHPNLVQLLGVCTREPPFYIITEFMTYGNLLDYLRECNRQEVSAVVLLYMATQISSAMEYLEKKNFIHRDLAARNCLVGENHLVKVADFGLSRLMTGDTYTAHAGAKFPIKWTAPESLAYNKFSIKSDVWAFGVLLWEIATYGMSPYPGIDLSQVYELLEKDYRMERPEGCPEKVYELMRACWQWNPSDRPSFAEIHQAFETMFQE

One test addresses c-Abl kinase (Abelson murine leukemia virus, UniProt P00521). The test is described as follows: Inhibition of c-Abl kinase activity (cell-free, Abl peptide substrate, 33P Flashplate). The class given is biochemical. To be noted: IC50 for the c-Abl kinase activity.
By IC50 is commonly meant the concentration needed to halve the response being measured. For `COC(=O)c1cccc(Nc2[nH]nc3c2Cc2cc(OC)c(OC)cc2-3)c1` [Compound 11, 3-(6,7-Dimethoxy-2,4-dihydro-indeno[1,2-c]pyrazol-3-ylamino)-benzoic acid methyl ester], the IC50 was 118 nM.
For `COc1cc2c(cc1OC)-c1n[nH]c(Nc3ccccc3F)c1C2` [Compound 12, (6,7-Dimethoxy-2,4-dihydro-indeno[1,2-c]pyrazol-3-yl)-(2-fluoro-phenyl)-amine], the IC50 amounted to 20 nM.
With `Cc1ccc2c(c1)-c1n[nH]c(Nc3ccccc3)c1C2` [Compound 22, (7-Methyl-2,4-dihydro-indeno[1,2-c]pyrazol-3-yl)-phenyl-amine], the IC50 amounted to 19 nM.
`COc1cc2c(cc1OC)-c1n[nH]c(Nc3cccnc3)c1C2` [Compound 30, (6,7-Dimethoxy-2,4-dihydro-indeno[1,2-c]pyrazol-3-yl)-pyridin-3-yl-amine]: the concentration for half-maximal inhibition (IC50) stood at 491 nM.
Regarding `COc1ccc2c(c1)-c1n[nH]c(Nc3ccccc3)c1C2` [Compound 39, (7-Methoxy-2,4-dihydro-indeno[1,2-c]pyrazol-3-yl)-phenyl-amine], the 50% inhibitory concentration (IC50) was 13 nM.
In the case of `COc1cc2c(cc1OC)-c1n[nH]c(NCc3ccccc3)c1C2` [Compound 63, Benzyl-(6,7-dimethoxy-2,4-dihydro-indeno[1,2-c]pyrazol-3-yl)-amine], the half-maximal inhibitory concentration (IC50) was determined as 419 nM.
Regarding `COc1cccc(Nc2[nH]nc3c2Cc2cc4c(cc2-3)OCO4)c1` [Compound 97, (2,9-Dihydro-5,7-dioxa-2,3-diaza-cyclopenta[a]-s-indacen-1-yl)-(3-methoxy-phenyl)-amine], the IC50 is 227 nM.
The same measure, in the same setting: to `CN1CCN(c2ccc3c(c2)Cc2c-3n[nH]c2Nc2cccc(Br)c2)CC1` [Compound 122, (3-Bromo-phenyl)-[6-(4-methyl-piperazin-1-yl)-2,4-dihydro-indeno[1,2-c]pyrazol-3-yl]-amine] belongs 1260 nM; to `COC(=O)c1cccc(Nc2[nH]nc3c2Cc2cc(OCCCN4CCCC4)c(OC)cc2-3)c1` [Compound 157, 3-[7-Methoxy-6-(3-pyrrolidin-1-yl-propoxy)-2,4-dihydro-indeno[1,2-c]pyrazol-3-ylamino]-benzoic acid methyl ester], 371 nM.
As to `COc1cc2c(cc1OC)-c1n[nH]c(NCc3cc(Cl)ccc3Cl)c1C2` [Compound 330, (2,5-Dichloro-benzyl)-(6,7-dimethoxy-2,4-dihydro-indeno[1,2-c]pyrazol-3-yl)-amine], the IC50 is 91 nM.
On to `COc1cc2c(cc1OC)-c1c(c(Nc3cccc(F)c3)nn1C(=O)CO)C2` [Compound 432, 1-[3-(3-Fluoro-phenylamino)-6,7-dimethoxy-4H-indeno[1,2-c]pyrazol-1-yl]-2-hydroxy-ethanone], for which the half-maximal inhibitory concentration (IC50) is 96 nM.

Another test relates to PDGF-BB-stimulated angiogenesis. The test is described as follows: Anti-angiogenesis matrigel mouse model (MM assay) supplemented with PDGF-BB, plug hemoglobin content. The test is classed as in vivo, mice (C57BL/6J). The following applies: mice. The source says:
Angiogenesis inhibitory activity of a compound of this invention can be measured in vivo using the matrigel mouse model (MM Assay) of angiogenesis (Passaniti et al., Laboratory Investigation, 67: 519–528, 1992). The matrigel mouse assay is a well-established method to quantify angiogenesis (see e g. Capogrossi et al., Methods in Molecular Medicine, Vascular Disease: Molecular Biology and Gene Therapy Protocols, Edited by: A. H. Baker, Humana Press Inc., Totowa, N.J., 1999). The model has been characterized extensively for its relevance as a mimic of the process of angiogenesis and has been used extensively to evaluate in vivo both potential angiogenic and anti-angiogenic activity of numerous compounds/agents. […] All procedures involving animals were conducted in an animal facility fully accredited by the American Association for Assessment and Accreditation of Laboratory Animal Care (AAALAC) and in accordance with The Guide for the Care and Use of Laboratory Animals (NIH). […]
Normal male mice (C57BL/6J) were injected subcutaneously (ventrally below rib cage at abdominal midline) with 1.0 mL of chilled matrigel supplemented with a single purified pro-angiogenic growth factor (100–500 ng/mL of either rhPDGF-BB (supra), recombinant human basic fibroblast growth factor, rhFGF-basic (R&D System Cat. No 233-FB) or recombinant human vascular endothelial growth factor, rhVEGF (PanVera Cat. No R2951) and heparin (35 U/mL). Compounds are formulated as 0.1% suspensions (1 mg/mL final concentration) in 0.5% methylcellulose. Vehicle or test compounds (8–10 mice per treatment group) were administered orally by gavage beginning two hours after matrigel injections. […] Supernatants were removed and the hemoglobin concentration in the plug extract was measured spectrophotometrically using the Drabkin's assay method (Drabkin's reagent kit 525-A; SIGMA) and read on a Beckman DU 7400 Spectrophotometer. […] Group differences were analyzed statistically using the Mann-Whitney Test, with a p-value of 0.05 or less considered statistically significant. […]
Regarding `COc1cc2c(cc1OC)-c1n[nH]c(Nc3ccccc3F)c1C2` [Compound 12, (6,7-Dimethoxy-2,4-dihydro-indeno[1,2-c]pyrazol-3-yl)-(2-fluoro-phenyl)-amine], the “% Inhibition @ 30 mg/kg po (angiogenesis, MM assay supplemented with PDGF-BB)” value was 45%.
On to `COc1cc2c(cc1OC)-c1n[nH]c(Nc3cccc(F)c3)c1C2` [Compound 14, (3-Fluoro-phenyl)-(6,7-dimethoxy-2,4-dihydro-indeno[1,2-c]pyrazol-3-yl)-amine], for which the “% Inhibition @ 30 mg/kg po (angiogenesis, MM assay supplemented with PDGF-BB)” value is listed as 40%.
